Data as given in ChEMBL document CHEMBL1130581, “Inhibition of nematode induced root damage by derivatives of methylenecyclopropane acetic acid” (1997).
≈ marks a conversion by molar mass, not a printed value.

Legend:
Assay type in all cases: functional
Meloidogyne incognita [1] = test: Average percent inhibition of nematode pest Meloidogyne incognita induced root galling of treated soil medium at 0.5 ppm
Meloidogyne incognita [2] = test: Average percent inhibition of nematode pest Meloidogyne incognita induced root galling of treated soil medium at 7.8 ppm
Meloidogyne incognita [3] = test: Average percent inhibition of nematode pest Meloidogyne incognita induced root galling of treated sand medium at 125 ppm
Meloidogyne incognita [4] = test: Average percent inhibition of nematode pest Meloidogyne incognita induced root galling of treated soil medium at 125 ppm
Meloidogyne incognita [5] = test: Average percent inhibition of nematode pest Meloidogyne incognita induced root galling of treated sand medium at 0.5 ppm
Meloidogyne incognita [6] = test: Average percent inhibition of nematode pest Meloidogyne incognita induced root galling of treated sand medium at 7.8 ppm
Meloidogyne incognita [7] = test: Lethal concentration required for inhibition of nematode induced root galling of treated sand medium to that of untreated soil medium

`C=C1CC1CCSC1=NCCS1` (stereo not drawn) was tested, and the inhibition at 0.5 ppm (Meloidogyne incognita [1]) was 0%, the inhibition at 7.8 ppm (Meloidogyne incognita [2]) was 25% and the inhibition at 125 ppm (Meloidogyne incognita [3]) was 100%. The inhibition at 125 ppm (Meloidogyne incognita [4]) was 100%, the inhibition at 0.5 ppm (Meloidogyne incognita [5]) was 50% and the inhibition at 7.8 ppm (Meloidogyne incognita [6]) was 100%.
Work on `C=C1CC1CC(=O)O` (stereo not drawn) yielded an inhibition at 0.5 ppm (Meloidogyne incognita [1]) of 0%, an inhibition at 7.8 ppm (Meloidogyne incognita [2]) of 15% and an inhibition at 125 ppm (Meloidogyne incognita [3]) of 100%. It also gave an inhibition at 125 ppm (Meloidogyne incognita [4]) of 80%, an inhibition at 0.5 ppm (Meloidogyne incognita [5]) of 90% and an inhibition at 7.8 ppm (Meloidogyne incognita [6]) of 100%.
`CC1CC1CC(=O)O` (stereo not drawn) was tested, and the inhibition at 0.5 ppm (Meloidogyne incognita [1]) was 0%, the inhibition at 7.8 ppm (Meloidogyne incognita [2]) was 0% and the inhibition at 125 ppm (Meloidogyne incognita [3]) was 100%. For the same compound, the inhibition at 125 ppm (Meloidogyne incognita [4]) was 0%, the inhibition at 0.5 ppm (Meloidogyne incognita [5]) was 0% and the inhibition at 7.8 ppm (Meloidogyne incognita [6]) was 100%.
`C=C1CC1CC(=O)OCc1cccc(Oc2ccccc2)c1` (stereo not drawn) gave an inhibition at 0.5 ppm (Meloidogyne incognita [1]) of 0%, an inhibition at 7.8 ppm (Meloidogyne incognita [2]) of 0% and an inhibition at 125 ppm (Meloidogyne incognita [3]) of 100%. For the same compound, the inhibition at 125 ppm (Meloidogyne incognita [4]) was 50%, the inhibition at 0.5 ppm (Meloidogyne incognita [5]) was 50% and the inhibition at 7.8 ppm (Meloidogyne incognita [6]) was 100%.
Work on `C=C1CC1CCN` (stereo not drawn) yielded an inhibition at 0.5 ppm (Meloidogyne incognita [1]) of 0%, an inhibition at 7.8 ppm (Meloidogyne incognita [2]) of 0% and an inhibition at 125 ppm (Meloidogyne incognita [3]) of 100%. The inhibition at 125 ppm (Meloidogyne incognita [4]) was 75%, the inhibition at 0.5 ppm (Meloidogyne incognita [5]) was 25% and the inhibition at 7.8 ppm (Meloidogyne incognita [6]) was 100%.
Compound `C=C1C(CC(=O)OCc2cccc(Oc3ccccc3)c2)C1(F)F` (stereo not drawn) has an inhibition at 0.5 ppm (Meloidogyne incognita [1]) of 0%, an inhibition at 7.8 ppm (Meloidogyne incognita [2]) of 0% and an inhibition at 125 ppm (Meloidogyne incognita [4]) of 25%.
`C=C1CC1CCOC(=O)c1ccc(OCC)cc1` (stereo not drawn) gave an inhibition at 0.5 ppm (Meloidogyne incognita [1]) of 0%, an inhibition at 7.8 ppm (Meloidogyne incognita [2]) of 0% and an inhibition at 125 ppm (Meloidogyne incognita [3]) of 100%. It also gave an inhibition at 125 ppm (Meloidogyne incognita [4]) of 100%, an inhibition at 0.5 ppm (Meloidogyne incognita [5]) of 100% and an inhibition at 7.8 ppm (Meloidogyne incognita [6]) of 100%.
Work on `C=C1C(CC(=O)OCCCCCCCCCCCCCCCC)C1(F)F` (stereo not drawn) yielded an inhibition at 0.5 ppm (Meloidogyne incognita [1]) of 0%, an inhibition at 7.8 ppm (Meloidogyne incognita [2]) of 0% and an inhibition at 125 ppm (Meloidogyne incognita [4]) of 0%.
`C=C1CC1CC(N)=O` (stereo not drawn) showed an inhibition at 0.5 ppm (Meloidogyne incognita [1]) of 0%, an inhibition at 7.8 ppm (Meloidogyne incognita [2]) of 0% and an inhibition at 125 ppm (Meloidogyne incognita [3]) of 100%. The inhibition at 125 ppm (Meloidogyne incognita [4]) was 100%, the inhibition at 0.5 ppm (Meloidogyne incognita [5]) was 0% and the inhibition at 7.8 ppm (Meloidogyne incognita [6]) was 100%.
With `C=C1CC1CC(=O)OCCCCCCCCCCCCCCCC` (stereo not drawn) the inhibition at 0.5 ppm (Meloidogyne incognita [1]) was 0%, the inhibition at 7.8 ppm (Meloidogyne incognita [2]) was 50% and the inhibition at 125 ppm (Meloidogyne incognita [3]) was 100%. The inhibition at 125 ppm (Meloidogyne incognita [4]) was 100%, the inhibition at 0.5 ppm (Meloidogyne incognita [5]) was 100% and the inhibition at 7.8 ppm (Meloidogyne incognita [6]) was 100%.
`C=C1C(CC(=O)O)C1(F)F` (stereo not drawn) was tested, and the inhibition at 0.5 ppm (Meloidogyne incognita [1]) was 0%, the inhibition at 7.8 ppm (Meloidogyne incognita [2]) was 0% and the inhibition at 125 ppm (Meloidogyne incognita [4]) was 100%.
In the case of `CNC(=O)O/N=C/C(C)(C)SC` [ALDICARB], the LC50 (Meloidogyne incognita [7]) is reported as 3.8 µg/mL (≈ 20 µM).
